These results are taken from ChEMBL document CHEMBL1132066, “Synthesis of alpha-C(1-->3)-mannopyranoside of N-acetylgalactosamine, a new beta-galactosidase inhibitor” (Bioorg Med Chem Lett, 1999).

Experiment [1] has as its target Beta-galactosidase (Escherichia coli) (UniProt Q8VNN2). The experiment in a line: Compound was evaluated for the percentage inhibition of beta-galactosidase enzyme from Escherichia coli at the concentration of 1 mM.
The test system of experiment [2] is Beta-galactosidase (Canavalia ensiformis). The experiment in a line: Compound was evaluated for the percentage inhibition of beta-galactosidase enzyme from jack bean at the concentration of 1 mM.
Experiment [3] concerns the target Beta-galactosidase (Escherichia coli, UniProt Q8VNN2). Briefly: Concentration required to inhibit beta-galactosidase enzyme by 50% from Escherichia coli was reported.

Chain of Beta-galactosidase (Escherichia coli) (Q8VNN2 whole entry, looked up): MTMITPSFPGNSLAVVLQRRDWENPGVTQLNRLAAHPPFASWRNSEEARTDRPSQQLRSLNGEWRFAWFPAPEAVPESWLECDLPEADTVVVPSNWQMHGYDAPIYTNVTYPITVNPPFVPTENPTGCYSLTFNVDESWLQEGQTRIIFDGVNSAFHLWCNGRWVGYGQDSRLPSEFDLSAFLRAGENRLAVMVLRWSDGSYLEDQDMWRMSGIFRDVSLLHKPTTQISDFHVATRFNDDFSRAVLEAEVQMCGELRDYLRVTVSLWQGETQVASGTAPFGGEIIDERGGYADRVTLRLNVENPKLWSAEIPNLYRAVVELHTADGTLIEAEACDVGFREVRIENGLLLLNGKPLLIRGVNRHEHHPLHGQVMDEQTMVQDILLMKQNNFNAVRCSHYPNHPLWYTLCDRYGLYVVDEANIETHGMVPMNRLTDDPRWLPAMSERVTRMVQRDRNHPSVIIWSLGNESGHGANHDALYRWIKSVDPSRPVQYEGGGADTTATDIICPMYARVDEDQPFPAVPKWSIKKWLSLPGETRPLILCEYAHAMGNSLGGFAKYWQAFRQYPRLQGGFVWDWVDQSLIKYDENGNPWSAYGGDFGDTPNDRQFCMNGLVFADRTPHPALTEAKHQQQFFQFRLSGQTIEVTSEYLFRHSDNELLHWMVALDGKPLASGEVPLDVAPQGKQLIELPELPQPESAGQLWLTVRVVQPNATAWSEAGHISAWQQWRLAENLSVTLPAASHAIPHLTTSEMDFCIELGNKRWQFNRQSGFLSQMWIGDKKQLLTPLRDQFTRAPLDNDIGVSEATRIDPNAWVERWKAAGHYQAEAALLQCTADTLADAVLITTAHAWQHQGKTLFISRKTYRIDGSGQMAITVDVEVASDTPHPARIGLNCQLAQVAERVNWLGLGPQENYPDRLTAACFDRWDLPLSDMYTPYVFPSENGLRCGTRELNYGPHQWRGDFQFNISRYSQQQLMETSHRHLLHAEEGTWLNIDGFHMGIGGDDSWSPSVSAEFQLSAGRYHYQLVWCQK
Chain of Beta-galactosidase (Q8VNN2 whole entry): as the sequence (Q8VNN2 whole entry, looked up) above

Consider `CC(=O)N[C@@H]1C(O)O[C@H](CO)[C@H](O)[C@@H]1C[C@H]1O[C@H](CO)[C@@H](O)[C@H](O)[C@@H]1O.CC(=O)N[C@H]1C(O)O[C@H](C(O)CO)[C@@H]1C[C@H]1O[C@H](CO)[C@@H](O)[C@H](O)[C@@H]1O` (stereo partly drawn), for which the inhibition in experiment [1] turned out to be 86%; in experiment [2], 92%. For the same molecule, in experiment [3], the half-maximal inhibitory concentration (IC50) turned out to be 500 µM.
